Legend:
human AT1 receptor = molecular target: T1, human AT1 receptor (Homo sapiens, UniProt P30556); assay: AT1 receptor antagonistic activity: [125I]-angiotensin II binding assay on human AT1 receptor-expressing CHO-K1 cellular membrane fraction; settings: 22.5 pM [125I]-angiotensin II, 1 hr room temperature
T1 construct: expressed in transfected cells; membrane fraction
T1 sequence (P30556 1-359): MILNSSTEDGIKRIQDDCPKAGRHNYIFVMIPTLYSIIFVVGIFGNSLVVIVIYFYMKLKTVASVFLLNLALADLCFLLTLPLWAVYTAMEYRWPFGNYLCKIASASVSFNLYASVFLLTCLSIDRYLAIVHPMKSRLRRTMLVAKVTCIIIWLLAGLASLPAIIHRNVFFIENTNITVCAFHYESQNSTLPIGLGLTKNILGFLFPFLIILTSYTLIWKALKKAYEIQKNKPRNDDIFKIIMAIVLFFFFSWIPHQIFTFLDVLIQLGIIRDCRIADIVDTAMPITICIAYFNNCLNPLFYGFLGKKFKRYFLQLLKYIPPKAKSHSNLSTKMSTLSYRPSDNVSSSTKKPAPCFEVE
Protocol: CHO-K1 cell (RIKEN, Japan) capable of stable expression of human AT1 receptor was cultured, recovered, suspended in homogenize buffer (10 mM NaHCO3 (pH 7.4), 5 mM EDTA, 1× Complete EDTA free) [manufactured by Roche, Switzerland], and homogenized. The homogenate was centrifuged at low-speed (900×g, 10 min, 4° C.), and the supernatant was recovered and ultracentrifuged (90,000×g, 1 hr, 4° C.). The supernatant was discarded, and the pellets were resuspended in suspension buffer (50 mM Tris (pH 7.4), 1 mM EDTA, 1× Complete EDTA free).
(9 μg) in the presence of AT1 membrane and test compound in 100 μl, (total reaction volume) of reaction buffer (50 mM Tris (pH 7.4), 10 mM MgCl2 supplemented or not supplemented with 0.3 mg/mL fatty acid-free bovine serum albumin [manufactured by Wako Pure Chemical Industries, Ltd., Japan]). The reaction mixture was incubated in 96 well polypropylene plate for 1 hr at room temperature, and the reaction was quenched by rapid filtration (96 well cell harvester) through a GF/C filter treated with wash buffer (50 mM Tris (pH 7.4)). Subsequently, the filter was washed 5 times with 0.3 mL of ice-cooled wash buffer. […] Total binding was measured in the presence of 1% DMSO and nonspecific binding was measured in the presence of […] Candesartan.

human PPARγ = molecular target: T2, human PPARγ (Homo sapiens, UniProt P37231); assay: PPARγ agonistic activity: luciferase reporter assay in PPARγ:RXRα:4ERPP/CHO-K1 cells; type: cell-based; settings: CHO-K1, test compound 10^−6 M; luciferase activity of control compound X (1 μM) = 100%, non-administration group = 0%
T2 construct: expressed in transfected cells
T2 sequence (P37231 1-477 isoform P37231-2): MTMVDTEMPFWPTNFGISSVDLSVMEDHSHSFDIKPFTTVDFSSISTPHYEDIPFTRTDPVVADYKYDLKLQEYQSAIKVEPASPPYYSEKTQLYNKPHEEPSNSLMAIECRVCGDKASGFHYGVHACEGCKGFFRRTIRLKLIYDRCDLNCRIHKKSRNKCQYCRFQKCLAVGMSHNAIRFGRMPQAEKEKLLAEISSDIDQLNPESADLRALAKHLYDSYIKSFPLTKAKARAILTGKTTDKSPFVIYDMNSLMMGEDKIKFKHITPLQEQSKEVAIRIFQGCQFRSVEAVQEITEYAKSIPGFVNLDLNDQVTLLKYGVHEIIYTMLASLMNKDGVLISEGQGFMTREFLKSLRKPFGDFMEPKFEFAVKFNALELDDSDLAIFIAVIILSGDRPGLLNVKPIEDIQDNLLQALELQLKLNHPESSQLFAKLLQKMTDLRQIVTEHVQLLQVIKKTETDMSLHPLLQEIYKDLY
T2 sequence (P19793 1-462 partner): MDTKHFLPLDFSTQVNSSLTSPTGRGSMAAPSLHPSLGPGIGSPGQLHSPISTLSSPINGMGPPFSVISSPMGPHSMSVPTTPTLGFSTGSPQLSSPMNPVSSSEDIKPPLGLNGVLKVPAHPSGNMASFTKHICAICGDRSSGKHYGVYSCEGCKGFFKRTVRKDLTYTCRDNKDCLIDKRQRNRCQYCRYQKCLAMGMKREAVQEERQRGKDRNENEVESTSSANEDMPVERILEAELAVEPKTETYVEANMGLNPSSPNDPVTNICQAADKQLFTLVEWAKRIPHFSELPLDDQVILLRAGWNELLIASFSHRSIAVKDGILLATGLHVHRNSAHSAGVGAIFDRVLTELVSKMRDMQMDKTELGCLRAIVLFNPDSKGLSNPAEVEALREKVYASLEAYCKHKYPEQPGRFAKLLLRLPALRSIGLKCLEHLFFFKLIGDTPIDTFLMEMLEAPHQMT
Text: A CHO-K1 cell cultured in a 150 cm^2 cell culture flask [manufactured by Corning Costar Corporation, USA] comprising Ham's F12 medium [manufactured by INVITROGEN, USA] supplemented with 10% fetal bovine serum [manufactured by INVITROGEN, USA] was taken off by treating with 0.5 g/L trypsin-0.2 g/L EDTA (ethylenediamine tetraacetate) [manufactured by Life Technologies, Inc., USA], and then the cell was washed with PBS (Phosphate-buffered saline) [manufactured by INVITROGEN, USA], centrifuged (1000 rpm, 5 minutes) and suspended in PBS. Subsequently, DNA was introduced into the cell under the conditions shown below using GENE PULSER [manufactured by Bio-Rad Laboratories, USA].
Namely, to a cuvette having a 0.4 cm gap were added 8×10^6 cells and 10 μg of plasmid pVgRXR2-hPPARγ obtained in the above-mentioned (4) and 10 μg of reporter plasmid pGL3-4ERPP-TK neo obtained in the above-mentioned (3), which was subjected to electroporation at the voltage of 0.25 kV under the capacitance of […] Subsequently, the cell was transferred into a F12 medium comprising 10% fetal bovine serum and cultured for 24 hours, and then the cell was taken off again and centrifuged. Then, the pellet was suspended in Ham's F12 medium comprising 10% fetal bovine serum supplemented with 500 μg/ml of Geneticin [manufactured by INVITROGEN, USA] and 250 μg/ml of Zeocin [manufactured by INVITROGEN, USA]. The obtained suspension was diluted to the density of 10^4 cells/ml and inoculated in a 96-well plate [manufactured by Corning Costar Corporation, USA], which was cultured in a CO2 gas incubator at 37° C., whereby obtaining a Geneticin- and Zeocin-resistant transformant.
Subsequently, after the transformed cell line thus obtained was cultured in a 24-well plate [manufactured by Corning Costar Corporation, USA], a cell line in which expression of the luciferase was induced, i.e., PPARγ:RXRα:4ERPP/CHO-K1 cell was selected by the addition of 10 μM pioglitazone hydrochloride.
PPARγ:RXRα:4ERPP/CHO-K1 cells obtained in the above-mentioned (5) were cultured in F12 medium [manufactured by INVITROGEN, USA] containing 10% fetal bovine serum [manufactured by MOREGATE, Australia], seeded in a 96 well half-area white plate [manufactured by Corning Coster Corporation, USA] at 5×10^3 cells/well, and cultured in a CO2 incubator at 37° C. overnight.
Then, the medium was removed from the 96 well half-area white plate, hamF12 medium containing 0.1% fatty acid-free bovine serum albumin (BSA) (45 μl) and a test compound (5 μl) were added, and the mixture was cultured in the CO2 incubator at 37° C. for 1 day. After removing the medium, Picagene 7.5 [manufactured by Dai Nippon Inki, Japan] (20 μl) diluted 2-fold with HBSS (HANKS' BALANCED SALT SOLUTION) [manufactured by BIO […], USA] was added, and the mixture was stirred. Using 1420 ARVO Multilabel Counter [manufactured by PerkinElmer, USA], luciferase activity was measured. The percentage (%) was calculated from the luciferase activity of the test compound when the luciferase activity of the control compound (compound X: 5-[3-(4-{[2-(2-furyl)-5-methyl-1,3-oxazol-4-yl]methoxy}-3-methoxyphenyl)propyl]-1,3-oxazolidine-2,4-dione) (1 μM) was taken as 100% and the luciferase activity of the test compound non-administration group was taken as 0%.

| Compound | IC50 (human AT1 receptor) [nM] | activation at 1 µM (human PPARγ) [%] |
| --- | --- | --- |
| CCCc1c(Cc2ccc(-c3ccccc3-c3noc(=O)[nH]3)cc2)c(=O)n(C/C(=N\OCC)C(F)(F)F)c2nc(C)nn12 [Example 107, 4-[(2E)-2-(ethoxyimino)-3,3,3-trifluoropropyl]-2-methyl-6-{[2′-(5-oxo-4,5-dihydro-1,2,4-oxadiazol-3-yl)biphenyl-4-yl]methyl}-7-propyl[1,2,4]triazolo[1,5-a]pyrimidin-5(4H)-one] | 1.9 | 16 |
| CCCCc1c(Cc2ccc(-c3ccccc3-c3noc(=O)[nH]3)cc2F)c(=O)n(C2CCOCC2)c2nc(C)nn12 [Example 135, 7-butyl-6-{[3-fluoro-2′-(5-oxo-4,5-dihydro-1,2,4-oxadiazol-3-yl)biphenyl-4-yl]methyl}-2-methyl-4-(tetrahydro-2H-pyran-4-yl)[1,2,4]triazolo[1,5-a]pyrimidin-5(4H)-one] | 0.9 | 26 |
| CCCc1c(Cc2ccc(-c3ccccc3-c3noc(=O)[nH]3)cc2)c(=O)n([C@H]2C[C@H](OCC(O)(CC)CC)C2)c2ncnn12 [Example 259, 4-[trans-3-(2-ethyl-2-hydroxybutoxy)cyclobutyl]-6-{[2′-(5-oxo-4,5-dihydro-1,2,4-oxadiazol-3-yl)biphenyl-4-yl]methyl}-7-propyl[1,2,4]triazolo[1,5-a]pyrimidin-5(4H)-one] | 2.3 | 28 |
| CCCc1c(Cc2ccc(-c3ccccc3-c3noc(=O)[nH]3)cc2F)c(=O)n(-c2ccc(OC(C)C)cc2)c2ncnn12 [Example 43, 6-{[3-fluoro-2′-(5-oxo-4,5-dihydro-1,2,4-oxadiazol-3-yl)biphenyl-4-yl]methyl}-4-[4-(1-methylethoxy)phenyl]-7-propyl[1,2,4]triazolo[1,5-a]pyrimidin-5(4H)-one] | 2.1 | 34 |
| CCCc1c(Cc2ccc(-c3ccccc3-c3noc(=O)[nH]3)cc2)c(=O)n(CC(C)(C)C)c2ncnn12 [Example 9, 4-(2,2-dimethylpropyl)-6-{[2′-(5-oxo-4,5-dihydro-1,2,4-oxadiazol-3-yl)biphenyl-4-yl]methyl}-7-propyl[1,2,4]triazolo[1,5-a]pyrimidin-5(4H)-one] | 2.1 | 17 |
| CCCc1c(Cc2ccc(-c3ccccc3-c3noc(=O)[nH]3)cc2F)c(=O)n(C2CCOCC2)c2nc(C)nn12 [Example 108, 6-{[3-fluoro-2′-(5-oxo-4,5-dihydro-1,2,4-oxadiazol-3-yl)biphenyl-4-yl]methyl}-2-methyl-7-propyl-4-(tetrahydro-2H-pyran-4-yl)[1,2,4]triazolo[1,5-a]pyrimidin-5(4H)-one] | 1.5 | 16 |

The next lines start with the values.

| IC50 (human AT1 receptor) [nM] | activation at 1 µM (human PPARγ) [%] | Compound |
| --- | --- | --- |
| 2.7 | 27 | CCCc1c(Cc2ccc(-c3ccccc3-c3noc(=O)[nH]3)cc2)c(=O)n([C@H]2CC[C@@]3(CC2)CC(C)=NO3)c2ncnn12 [Example 205, 4-[(5S,8S)-3-methyl-1-oxa-2-azaspiro[4.5]dec-2-en-8-yl]-6-{[2′-(5-oxo-4,5-dihydro-1,2,4-oxadiazol-3-yl)biphenyl-4-yl]methyl}-7-propyl[1,2,4]triazolo[1,5-a]pyrimidin-5(4H)-one] |
| 1.2 | 19 | CCCc1c(Cc2ccc(-c3ccccc3-c3noc(=O)[nH]3)cc2)c(=O)n(C2CCC(C(C)(C)O)CC2)c2ncnn12 (centres unmarked) [Example 376, 4-[4-(1-hydroxy-1-methylethyl)cyclohexyl]-6-{[2′-(5-oxo-4,5-dihydro-1,2,4-oxadiazol-3-yl)biphenyl-4-yl]methyl}-7-propyl[1,2,4]triazolo[1,5-a]pyrimidin-5(4H)-one] |
| 2 | 31 | CCCc1c(Cc2ccc(-c3ccccc3-c3noc(=O)[nH]3)cc2)c(=O)n([C@H]2CC[C@H](OCC(O)C(F)(F)F)CC2)c2ncnn12 (stereo partly drawn) [Example 325, 6-{[2′-(5-oxo-4,5-dihydro-1,2,4-oxadiazol-3-yl)biphenyl-4-yl]methyl}-7-propyl-4-[trans-4-(3,3,3-trifluoro-2-hydroxypropoxy)cyclohexyl][1,2,4]triazolo[1,5-a]pyrimidin-5(4H)-one] |
| 1.3 | 22 | CCCc1c(Cc2ccc(-c3ccccc3-c3noc(=O)[nH]3)cc2F)c(=O)n([C@H]2CC[C@@H](O)CC2)c2ncnn12 [Example 166, 6-{[3-fluoro-2′-(5-oxo-4,5-dihydro-1,2,4-oxadiazol-3-yl)biphenyl-4-yl]methyl}-4-(cis-4-hydroxycyclohexyl)-7-propyl[1,2,4]triazolo[1,5-a]pyrimidin-5(4H)-one] |

Source: US8283353B2, “Fused ring compound and use thereof” (Takeda Pharmaceutical Company Limited, priority 2009, dated 2012)
